Measured values taken from PubChem BioAssay (NCI).
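Cultured in 96-well plates, cells were exposed to test compound for 48 hours across five concentrations. GI50 is the concentration that inhibits growth by half. The concentration for full growth arrest is given as TGI.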

Assays:
Assay in all cases: NCI tumour cell line growth inhibition, 48 h
CAKI-1 renal = tested on: CAKI-1 renal
LOX IMVI melanoma = tested on: LOX IMVI melanoma
M14 melanoma = tested on: M14 melanoma
MDA-MB-435 = tested on: MDA-MB-435
MOLT-4 leukemia = tested on: MOLT-4 leukemia
OVCAR-5 ovarian = tested on: OVCAR-5 ovarian
PC-3 prostate = tested on: PC-3 prostate
SK-MEL-28 melanoma = tested on: SK-MEL-28 melanoma
SNB-75 CNS = tested on: SNB-75 CNS
CCRF-CEM leukemia = tested on: CCRF-CEM leukemia

Row | SMILES | GI50 (CAKI-1 renal) [nM] | TGI (CAKI-1 renal) [µM] | GI50 (LOX IMVI melanoma) [nM] | TGI (LOX IMVI melanoma) [µM] | GI50 (M14 melanoma) [nM] | TGI (M14 melanoma) [µM] | GI50 (MDA-MB-435) [nM] | TGI (MDA-MB-435) [µM] | GI50 (MOLT-4 leukemia) [nM] | TGI (MOLT-4 leukemia) [µM] | GI50 (OVCAR-5 ovarian) [nM] | TGI (OVCAR-5 ovarian) [µM] | GI50 (PC-3 prostate) [nM] | TGI (PC-3 prostate) [µM] | GI50 (SK-MEL-28 melanoma) [nM] | TGI (SK-MEL-28 melanoma) [µM] | GI50 (SNB-75 CNS) [nM] | TGI (SNB-75 CNS) [µM] | TGI (CCRF-CEM leukemia) [µM] | GI50 (CCRF-CEM leukemia) [nM]
1 | CCN(CC)Cc1cc(Nc2c3ccc(Cl)cc3nc3c(C)cccc23)ccc1O | 1530 | 2.92 | 1290 | 2.61 | 1690 | 3.11 | 1750 | 3.14 | 855 | 10.9 | 2100 | 4.86 | 1550 | 3.1 | 1780 | 3.22 | 1500 | 2.84 |  | 
2 | Nc1ccc(C(=O)N/C(=C\c2ccc3c(c2)OCO3)c2nc3ccc4c(c3[nH]2)C(=O)c2ccccc2C4=O)cc1 |  | > 100 |  | > 100 |  | > 100 |  |  |  | > 100 |  | > 100 |  |  |  | 78.5 |  | 57.8 | 92.6 | 
3 | CCc1cc(Nc2nccc(-c3c(-c4ccc(OC)c(C(=O)Nc5c(F)cccc5F)c4)nc4ccccn34)n2)c(OC)cc1N1CCC(N2CCN(S(C)(=O)=O)CC2)CC1 | > 100000 | > 100 | > 100000 | > 100 | > 58100 | > 100 | > 100000 | > 100 | > 100000 | > 100 | > 100000 | > 100 | > 100000 | > 100 | > 100000 | > 100 | > 50100 | > 100 |  | 
4 | CC(C)C(NCc1c2ccccc2nc2ccccc12)C(=O)O (stereo not given) |  | > 100 |  | > 100 |  | > 100 |  |  |  | 69.1 |  | > 100 |  |  |  | > 100 |  | > 100 | 88.3 | 
5 | C=C1C(=O)O[C@H]2[C@H]1CC/C(COC(=O)c1ccc(Br)cc1)=C\CC[C@@]1(C)O[C@@H]21 |  |  | 797 | 2.19 | 1470 | 3.2 | 1790 | 3.5 | 1170 | 6.06 | 1680 | 3.62 | 1690 | 3.19 | 1700 | 3.39 | 1160 | 2.41 | 7.76 | 393
6 | Clc1ccc2c(NCCNc3nc(Cl)nc4ccccc34)ccnc2c1 |  |  |  |  | 1840 | 3.51 | 1470 | 2.95 | 332 | 1.25 | 1620 | 3.09 | 1600 | 3.12 | 1780 | 3.4 | 1640 | 3.16 | 1.04 | 331
7 | O=C(/C=C/c1ccc(OCCCOc2ccc(/C=C/C(=O)c3ccc(Cl)cc3)cc2)cc1)c1ccc(Cl)cc1 |  | > 100 |  | > 100 |  | > 100 |  |  |  | > 100 |  | > 100 |  |  |  | > 100 |  | > 100 | > 100 | 
8 | COC(=O)C1=C(c2cc(OC)c(OC)c(OC)c2)OC(c2cc(OC)c(OC)c(OC)c2)C1 (stereo not given) |  | 60.9 |  | 36.9 |  | 50 |  |  |  | 68.5 |  | > 100 |  |  |  | > 100 |  | 78.1 | > 100 | 
9 | CC(C)N(C(=O)C12C3C4C5C3C1(C(=O)N(C(C)C)C(C)C)C5C42)C(C)C (stereo not given) |  | > 100 |  | > 69.5 |  | > 100 |  |  |  | > 100 |  | > 100 |  |  |  | > 100 |  | > 100 | > 68.3 | 
